The values below come from ChEMBL document CHEMBL5726286, “3-oxo-tetrahydro-furo[3,2-B]pyrrol-4(5H)-yl) derivatives I” (2017).

Assay [1] concerns the target Cathepsin S (Homo sapiens, UniProt P25774). Description: (§1) Enzyme Assay: Recombinant human cathepsins (CatS, CatK, CatL) were purchased from a Enzo Life Sciences. All assays were carried out in 96-well format using a buffer of 50 mM KH2PO4, 50 mM NaCl, 2 mM EDTA, 0.5 mM DTT and 1% Triton-X-100, pH 6.5 for Cathepsin S and a buffer of 50 mM NaOAc, 10 mM EDTA, 1 mM DTT and 0.01% Triton-X-100, pH 5.5 for CatK/L/B. For CatS, the enzyme (0.0007 mU/well) was incubated with fluorogeninc substrate (Z-VVR-AMC, 5 μM) at RT for 10 min. For CatK the enzyme (0.00175 mU/well) was incubated with fluorogeninc substrate (Z-FR-AMC, 40 μM) at RT for 10 min. For CatL, the enzyme (0.000874 mU/well) was incubated with fluorogeninc substrate (Z-VVR-AMC, 40 μM) at RT for 10 min. Flourogenic substrate turnover was detected using a microplate reader (Synergy H4, BioTek). Ki values were calculated using the Cheng Prusoff equation (Cheng & Prosoff 1973).

Assay [2] deals with T1, Cathepsin K (Homo sapiens, UniProt P43235).
T1 sequence (P43235 whole entry): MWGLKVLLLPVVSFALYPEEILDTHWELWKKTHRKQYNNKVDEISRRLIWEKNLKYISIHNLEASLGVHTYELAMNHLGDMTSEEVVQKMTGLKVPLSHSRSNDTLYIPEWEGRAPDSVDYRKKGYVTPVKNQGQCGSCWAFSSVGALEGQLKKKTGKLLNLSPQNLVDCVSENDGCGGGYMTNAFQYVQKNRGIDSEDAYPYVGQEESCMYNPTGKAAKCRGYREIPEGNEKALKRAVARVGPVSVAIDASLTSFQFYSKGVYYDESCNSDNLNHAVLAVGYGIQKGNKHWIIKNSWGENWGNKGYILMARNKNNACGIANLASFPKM
The assay is described as §1.

Sequence of Cathepsin S (P25774 whole entry): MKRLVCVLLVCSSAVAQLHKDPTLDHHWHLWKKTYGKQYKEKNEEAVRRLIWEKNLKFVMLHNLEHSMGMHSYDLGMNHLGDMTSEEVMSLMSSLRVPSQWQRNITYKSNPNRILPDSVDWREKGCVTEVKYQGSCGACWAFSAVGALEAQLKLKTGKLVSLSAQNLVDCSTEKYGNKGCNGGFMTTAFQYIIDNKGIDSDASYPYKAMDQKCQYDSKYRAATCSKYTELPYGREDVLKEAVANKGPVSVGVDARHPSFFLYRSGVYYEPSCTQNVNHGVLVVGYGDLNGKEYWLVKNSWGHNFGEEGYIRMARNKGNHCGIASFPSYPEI

Regarding `O=C(N[C@H](C(=O)N1C[C@H](Cl)[C@H]2OCC(=O)[C@H]21)C1CCCCC1)c1ccc(-c2ccncn2)o1`, the Ki in assay [1] is 699 nM; in assay [2], 262 nM. For `O=C(N[C@H](C(=O)N1C[C@H](Cl)[C@H]2OCC(=O)[C@H]21)C1CCCCC1)c1cnc(-c2ccnnc2)o1` the same measures were 527 nM and 278 nM. Consider `Cc1nccc(-c2ccc(C(=O)N[C@H](C(=O)N3C[C@H](Cl)[C@H]4OCC(=O)[C@H]43)C3CCCCC3)s2)n1`, for which the Ki is 238 nM in assay [1] and 9 nM in assay [2].

As to `COc1ccc(-c2ccc(C(=O)N[C@H](C(=O)N3C[C@H](Cl)[C@H]4OCC(=O)[C@H]43)C3CCCCC3)s2)nn1`, the inhibition constant Ki is 344 nM in assay [1] and 16 nM in assay [2]. In the same order, the values of `O=C(N[C@H](C(=O)N1C[C@H](Cl)[C@H]2OCC(=O)[C@H]21)C1CCCCC1)c1ccc(-c2cccnc2)o1` are 612 nM and 54 nM. Take `O=C(N[C@H](C(=O)N1C[C@H](Cl)[C@H]2OCC(=O)[C@H]21)C1CCCCC1)c1nnc(-c2ccncc2)s1`: the Ki in assay [2] was 14 nM.

What is called Ki is the dissociation constant of the complex between target and ligand, obtained from inhibition or displacement.
